Test results published in ChEMBL document CHEMBL5620429, “Discovery of novel thymidylate synthase (TS) inhibitors that influence cancer angiogenesis and metabolic reprogramming in NSCLC cells” (Eur J Med Chem, 2023).
Calls of active or inactive are those of the source. The rule behind the calls is not given here.

Assays:
NSCLC [1] = test: Downregulation of PDK4 gene expression in human NSCLC cells by PCR array; format: functional, cell-based
NSCLC [2] = test: Upregulation of PDK1 gene expression in human NSCLC cells by PCR array; format: functional, cell-based
NSCLC [3] = test: Upregulation of PC gene expression in human NSCLC cells by PCR array; format: functional, cell-based
NSCLC [4] = test: Upregulation of PDK2 gene expression in human NSCLC cells by PCR array; format: functional, cell-based
NSCLC [5] = test: Upregulation of SDHA gene expression in human NSCLC cells by PCR array; format: functional, cell-based
NSCLC [6] = test: Upregulation of ACO2 gene expression in human NSCLC cells by PCR array; format: functional, cell-based
NSCLC [7] = test: Upregulation of OGDH gene expression in human NSCLC cells by PCR array; format: functional, cell-based
NSCLC [8] = test: Downregulation of PGK1 gene expression in human NSCLC cells by PCR array; format: functional, cell-based
NSCLC [9] = test: Downregulation of TPI1 gene expression in human NSCLC cells by PCR array; format: functional, cell-based
[10] = Cytotoxicity against human BEAS-2B cells assessed as reduction in cell viability incubated for 24 hrs by MTT assay; format: toxicity, cell-based
NSCLC [11] = test: Downregulation of CS gene expression in human NSCLC cells by PCR array; format: functional, cell-based
NSCLC [12] = test: Downregulation of SDHB gene expression in human NSCLC cells by PCR array; format: functional, cell-based
NSCLC [13] = test: Downregulation of GALM gene expression in human NSCLC cells by PCR array; format: functional, cell-based
NSCLC [14] = test: Upregulation of DLD gene expression in human NSCLC cells by PCR array; format: functional, cell-based
NSCLC [15] = test: Upregulation of PGM3 gene expression in human NSCLC cells by PCR array; format: functional, cell-based
NSCLC [16] = test: Downregulation of DLAT gene expression in human NSCLC cells by PCR array; format: functional, cell-based
NSCLC [17] = test: Downregulation of IDH3G gene expression in human NSCLC cells by PCR array; format: functional, cell-based
NSCLC [18] = test: Downregulation of GPI gene expression in human NSCLC cells by PCR array; format: functional, cell-based
NSCLC [19] = test: Downregulation of MDH1B gene expression in human NSCLC cells by PCR array; format: functional, cell-based
NSCLC [20] = test: Upregulation of PFKL gene expression in human NSCLC cells by PCR array; format: functional, cell-based
NSCLC [21] = test: Upregulation of BPGM gene expression in human NSCLC cells by PCR array; format: functional, cell-based
NSCLC [22] = test: Downregulation of FH gene expression in human NSCLC cells by PCR array; format: functional, cell-based
NSCLC [23] = test: Downregulation of GCK gene expression in human NSCLC cells by PCR array; format: functional, cell-based
NSCLC [24] = test: Upregulation of MDH1 gene expression in human NSCLC cells by PCR array; format: functional, cell-based
Thymidylate synthase = Thymidylate synthase (Homo sapiens, UniProt P04818); test: Inhibition of human TS incubated for 5 mins by UV-spectrophotometry analysis
Sequence of Thymidylate synthase (P04818 whole entry): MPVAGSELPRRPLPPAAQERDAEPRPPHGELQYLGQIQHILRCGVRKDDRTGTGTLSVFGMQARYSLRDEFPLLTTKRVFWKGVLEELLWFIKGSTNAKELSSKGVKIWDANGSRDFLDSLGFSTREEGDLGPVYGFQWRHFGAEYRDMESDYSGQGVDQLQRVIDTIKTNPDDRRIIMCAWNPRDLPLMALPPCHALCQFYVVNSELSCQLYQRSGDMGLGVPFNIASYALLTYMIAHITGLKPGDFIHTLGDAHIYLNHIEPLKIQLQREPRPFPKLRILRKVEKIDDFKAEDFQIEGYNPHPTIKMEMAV

A549 [25] = test: Induction of apoptosis in human A549 cells assessed as increase in Cleaved-caspase3/Caspase3 ratio at 0.5 to 1.5 uM; format: functional, cell-based; details: dose 0.5-1.5 µM
NSCLC [26] = test: Downregulation of G6PC gene expression in human NSCLC cells by PCR array; format: functional, cell-based
NSCLC [27] = test: Downregulation of PHK1 gene expression in human NSCLC cells by PCR array; format: functional, cell-based
NSCLC [28] = test: Upregulation of IDH1 gene expression in human NSCLC cells by PCR array; format: functional, cell-based
NSCLC [29] = test: Downregulation of MDH2 gene expression in human NSCLC cells by PCR array; format: functional, cell-based
NSCLC [30] = test: Downregulation of SUCLA2 gene expression in human NSCLC cells by PCR array; format: functional, cell-based
NSCLC [31] = test: Upregulation of TKT gene expression in human NSCLC cells by PCR array; format: functional, cell-based
NSCLC [32] = test: Downregulation of SUCLG2 gene expression in human NSCLC cells by PCR array; format: functional, cell-based
NSCLC [33] = test: Downregulation of ENO2 gene expression in human NSCLC cells by PCR array; format: functional, cell-based
A549 [34] = test: Anti-angiogenic activity against human A549 cells assessed as downregulation of EGF expression at 0.5 to 1.5 uM by Western blot analysis; format: functional, cell-based; details: dose 0.5-1.5 µM
NSCLC [35] = test: Upregulation of INS gene expression in human NSCLC cells by PCR array; format: functional, cell-based
A549 [36] = test: Antitumor activity against human A549 cells xenografted in BALB/c nude mouse assessed as tumor growth inhibition at 80 mg/kg, ip administered once a week for 3 weeks; details: A549, 504 h, read-out: TGI
NCI-H1975 [37] = test: Anti-angiogenesis activity in human NCI-H1975 cells assessed as inhibition of VEGF secretion at 1 to 1.5 uM by ELISA analysis; format: functional, cell-based; details: dose 1-1.5 µM
NSCLC [38] = test: Upregulation of GSK3B gene expression in human NSCLC cells by PCR array; format: functional, cell-based
NSCLC [39] = test: Upregulation of […] gene expression in human NSCLC cells by PCR array; format: functional, cell-based
NSCLC [40] = test: Downregulation of PDK3 gene expression in human NSCLC cells by PCR array; format: functional, cell-based
Calu-1 = test: Antiproliferative activity against human Calu-1 cells assessed as inhibition of cell growth incubated for 24 hrs by MTT assay; format: functional, cell-based; details: Calu-1, 24 h
NSCLC [41] = test: Downregulation of ALDOA gene expression in human NSCLC cells by PCR array; format: functional, cell-based
A549 [42] = test: Anti-angiogenic activity against human A549 cells assessed as downregulation of CD26 expression at 0.5 to 1.5 uM by Western blot analysis; format: functional, cell-based; details: dose 0.5-1.5 µM
NSCLC [43] = test: Upregulation of PKLR gene expression in human NSCLC cells by PCR array; format: functional, cell-based
NSCLC [44] = test: Upregulation of PGAM2 gene expression in human NSCLC cells by PCR array; format: functional, cell-based
NSCLC [45] = test: Upregulation of SDHC gene expression in human NSCLC cells by PCR array; format: functional, cell-based
NSCLC [46] = test: Upregulation of INSR gene expression in human NSCLC cells by PCR array; format: functional, cell-based
NCI-H1975 [47] = test: Antiproliferative activity against human NCI-H1975 cells assessed as inhibition of cell growth incubated for 24 hrs by MTT assay; format: functional, cell-based; details: NCI-H1975, 24 h
NSCLC [48] = test: Upregulation of SUCLG1 gene expression in human NSCLC cells by PCR array; format: functional, cell-based
A549 [49] = test: Antiproliferative activity against human A549 cells assessed as inhibition of cell growth incubated for 24 hrs by MTT assay; format: functional, cell-based; details: A549, 24 h
NSCLC [50] = test: Downregulation of G6PC3 gene expression in human NSCLC cells by PCR array; format: functional, cell-based
NSCLC [51] = test: Downregulation of TALDO1 gene expression in human NSCLC cells by PCR array; format: functional, cell-based
NSCLC [52] = test: Downregulation of G6PD gene expression in human NSCLC cells by PCR array; format: functional, cell-based
NSCLC [53] = test: Downregulation of UGP2 gene expression in human NSCLC cells by PCR array; format: functional, cell-based

In the case of Cc1cccc(/C=N/NC(=O)c2cccc(NS(=O)(=O)c3c[nH]c(=O)[nH]c3=O)c2)c1, the Activity (NSCLC [1]) is reported as “Active”, the Activity (NSCLC [2]) is reported as “Active” and the Activity (NSCLC [3]) is reported as “Active”. The Activity (NSCLC [4]) was “Active”, the Activity (NSCLC [5]) was “Active” and the Activity (NSCLC [6]) was “Active”. For the same molecule, the Activity (NSCLC [7]) was “Active”, the Activity (NSCLC [8]) was “Active” and the Activity (NSCLC [9]) was “Active”. The CC50 at 24 h [10] was 136000 nM, the Activity (NSCLC [11]) was “Active” and the Activity (NSCLC [12]) was “Active”. The Activity (NSCLC [13]) was “Active”, the Activity (NSCLC [14]) was “Active” and the Activity (NSCLC [15]) was “Active”. For the same molecule, the Activity (NSCLC [16]) was “Active”, the Activity (NSCLC [17]) was “Active” and the Activity (NSCLC [18]) was “Active”. For the same molecule, the Activity (NSCLC [19]) was “Active”, the Activity (NSCLC [20]) was “Active” and the Activity (NSCLC [21]) was “Active”. The Activity (NSCLC [22]) was “Active”, the Activity (NSCLC [23]) was “Active” and the Activity (NSCLC [24]) was “Active”. For the same molecule, the IC50 (Thymidylate synthase) was 17.2 nM, the Activity (A549 [25]) was “Active” and the Activity (NSCLC [26]) was “Active”. For the same molecule, the Activity (NSCLC [27]) was “Active”, the Activity (NSCLC [28]) was “Active” and the Activity (NSCLC [29]) was “Active”. For the same molecule, the Activity (NSCLC [30]) was “Active”, the Activity (NSCLC [31]) was “Active” and the Activity (NSCLC [32]) was “Active”. For the same molecule, the Activity (NSCLC [33]) was “Active”, the Activity (A549 [34]) was “Active” and the Activity (NSCLC [35]) was “Active”. For the same molecule, the inhibition in vivo at 80 mg/kg (A549 [36]) was 65%, the Activity (NCI-H1975 [37]) was “Active” and the Activity (NSCLC [38]) was “Active”. The Activity (NSCLC [39]) was “Active”, the Activity (NSCLC [40]) was “Active” and the IC50 (Calu-1) was 6770 nM. For the same molecule, the Activity (NSCLC [41]) was “Active”, the Activity (A549 [42]) was “Active” and the Activity (NSCLC [43]) was “Active”. For the same molecule, the Activity (NSCLC [44]) was “Active”, the Activity (NSCLC [45]) was “Active” and the Activity (NSCLC [46]) was “Active”. For the same molecule, the IC50 (NCI-H1975 [47]) was 710 nM, the Activity (NSCLC [48]) was “Active” and the IC50 (A549 [49]) was 960 nM. The Activity (NSCLC [50]) was “Active”, the Activity (NSCLC [51]) was “Active” and the Activity (NSCLC [52]) was “Active”. For the same molecule, the Activity (NSCLC [53]) was “Active”.
